PubChem BioAssay AID1963851 (Molecular Pharmacology Branch, DTP, NCI, 2024)
Values joined by “and” are separate entries in the source; they are usually repeats but may differ in a detail not shown here. Equal entries are not always repeated.

Test system: 188146-221-R-J1-PDC complex spheroid viability
Test: Anticancer human tumor 188146-221-R-J1-PDC patient-derived colon adenocarcinoma cell line growth inhibition [POLQ]
Conditions: for viability, T/C: stronger effect = lower value; active = viability on the fitted dose curve at most 10% of control; inactive = the rest
Protocol: Multicellular complex tumor spheroid response to Polymerase (POL) inhibitors (novobiocin, ART-558, RP6685) in combination with a variety of drugs and investigational agents in selected tumor cell lines
The POL inhibitors (novobiocin, ART-558, and RP6685) were evaluated both individually and in combination with standard of care and investigational anticancer small molecules within a complex spheroid model of solid tumors. . Complex spheroids include a stromal component modeled by human endothelial cells (HUVEC) and fibroblasts modeled by human mesenchymal stem cells (MSCs). The concentration ranges selected for each drug and investigational agent were based upon clinically achievable concentrations if the clinical Cmax of the agent was known.
Compounds. The drugs and investigational agents: novobiocin (NSC847541), ART-558 (NSC835418), RP-6685 (NSC848927), peposertib (NSC802822), ceralasertib (NSC780249), elimusertib (NSC800525), camonsertib (NSC841442), AZD-1390 (NSC803789), olaparib (NSC753686), talazoparib (NSC767125), rucaparib (NSC756644), sotorasib (NSC818433), MRTX-1133 (NSC836407), SN-38 (NSC673596), topotecan (NSC609699), epotoside (NSC141540), doxorubicin (NSC123127), gemcitabine (NSC613327), 5-fluorouracil (NSC19893), paclitaxel (NSC125973), vemurafenib (NSC761431), MSA-2 (NSC828583), SN-011 (NSC837082), adavosertib (NSC754352), prexasertib (NSC758257), carboplatin (NSC241240) and oxaliplatin (NSC266046), were obtained from the National Cancer Institute (NCI) Developmental Therapeutics Program Chemical Repository (21). The FDA-approved anticancer drug set is available from the Developmental Therapeutics Program at https://dtp.cancer.gov/organization/dscb/obtaining/. […] The stock solutions were prepared in dimethyl sulfoxide (DMSO, Sigma-Aldrich, St. Louis, MO, cat. D2650), except for the platinum compounds which were prepared in saline (Quality Biological, Gaithersburg, MD, cat. 114-055-101), at 800-fold the tested concentration and stored at -70 degrees C prior to their use. All drugs and investigational agents were tested over a range starting from a high concentration at or near the clinical Cmax and decreasing in half-log increments. If the clinical Cmax for an agent had not been determined, the highest concentration tested was 10 microM, except for SN-38, which was tested at a high concentration of 1 microM.
Cell Culture. All cells were maintained in an incubator at 37 degrees C and 5% CO2 with 95% humidity. The PDC lines were cultured according to standard operating procedures established by the NCI PDMR (https://pdmr.cancer.gov). Table 3 of the manuscript, lists the cell lines along with the number of the three cell types plated to form the mct-spheroids and media for tumor cell growth. After thawing, all PDC lines, except 997537-175-T-J1-PDC and 415267-285-R-J2-PDC, were cultured in Matrigel-coated flasks prepared with a working solution of 1X Ham's F-12 nutrient mix, without supplementation (Thermo Fisher Scientific, cat. 11765054), 100 U/mL penicillin-streptomycin (Thermo Fisher Scientific, cat. 15140122), and 2.5% Matrigel (Corning Inc., Corning, NY, cat. 354248) for the first three passages. The two PDC lines 997537-175-T-J1-PDC and 415267-285-R-J2-PDC were cultured on uncoated flasks. The 857933-349-R-J2-PDC line was cultured in 6C/Colon 1B media containing advanced DMEM/F-12 (Thermo Fisher Scientific, cat. 12634028), 10 mM HEPES (Thermo Fisher Scientific, cat. 15630080), 1X GlutaMAX supplement (Thermo Fisher Scientific, cat. 35050061), 0.1 mg/mL primocin (InvivoGen, San Diego, CA, cat. ant-pm-2), 10% defined fetal bovine serum, heat inactivated (HyClone Laboratories Inc., Logan, UT, cat. SH30070.03HI), 50% L-WRN conditioned media (ATCC, cat. CRL-3276), 1.25 mM N-Acetyl-L-cysteine (Sigma-Aldrich, cat. A9165), 10 mM nicotinamide (Sigma-Aldrich, cat. N0636), 1X B-27 supplement (Thermo Fisher Scientific, cat. 17504044), 1X N-2 supplement (Thermo Fisher Scientific, cat. […]

[1] = curve of first compound, second compound 0.0316 µM
[2] = curve of first compound, second compound 0.1 µM
[3] = curve of first compound, second compound 0.316 µM
[4] = curve of first compound, second compound 1 µM
[5] = curve of first compound, second compound 3.16 µM
[6] = curve of first compound, second compound 10 µM
[7] = second compound 0.0316 µM, first compound 0.0316 µM
[8] = second compound 0.0316 µM, first compound 0.1 µM
[9] = second compound 0.0316 µM, first compound 0.316 µM
[10] = second compound 0.0316 µM, first compound 1 µM
[11] = second compound 0.1 µM, first compound 0.0316 µM
[12] = second compound 0.1 µM, first compound 0.1 µM
[13] = second compound 0.1 µM, first compound 0.316 µM
[14] = second compound 0.1 µM, first compound 1 µM
[15] = second compound 0.316 µM, first compound 0.0316 µM
[16] = second compound 0.316 µM, first compound 0.1 µM
[17] = second compound 0.316 µM, first compound 0.316 µM
[18] = second compound 0.316 µM, first compound 1 µM
[19] = second compound 1 µM, first compound 0.0316 µM
[20] = second compound 1 µM, first compound 0.1 µM
[21] = second compound 1 µM, first compound 0.316 µM
[22] = second compound 1 µM, first compound 1 µM
[23] = second compound 3.16 µM, first compound 0.0316 µM
[24] = second compound 3.16 µM, first compound 0.1 µM
[25] = second compound 3.16 µM, first compound 0.316 µM
[26] = second compound 3.16 µM, first compound 1 µM
[27] = second compound 10 µM, first compound 0.0316 µM
[28] = second compound 10 µM, first compound 0.1 µM
[29] = second compound 10 µM, first compound 0.316 µM
[30] = second compound 10 µM, first compound 1 µM
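Also: spheroids exposed to compounds for seven days.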

COc1ccc([C@@H](O)c2cc(-c3ncnc4cc(N5CCOCC5)ccc34)c(F)cc2Cl)nn1 + Nc1ccc(C#CCN(C(=O)Cc2ncc(C(F)(F)F)cc2C(F)(F)F)c2ccc(F)cc2)nn1
6.9 µM: IC50 [2]
6.86 µM: IC50 [6]
> 10 µM: IC50 [3]
inactive: viability, T/C [7] 103% | viability, T/C [8] 118% | viability, T/C [9] 96.6% | viability, T/C [10] 87.6% | viability, T/C (second compound 0.0316 µM, first compound 3.16 µM) 65.1% | viability, T/C (second compound 0.0316 µM, first compound 10 µM) 42.5% | viability, T/C [11] 109% | viability, T/C [12] 91.3% | viability, T/C [13] 91.1% | viability, T/C [14] 83.9% | viability, T/C (second compound 0.1 µM, first compound 3.16 µM) 74.1% | viability, T/C (second compound 0.1 µM, first compound 10 µM) 39% | viability, T/C [15] 122% | viability, T/C [16] 95.3% | viability, T/C [17] 95.5% | viability, T/C [18] 83.6% | viability, T/C (second compound 0.316 µM, first compound 3.16 µM) 82.5% | viability, T/C (second compound 0.316 µM, first compound 10 µM) 44.5% | viability, T/C [19] 103% | viability, T/C [20] 96.8% | viability, T/C [21] 91.9% | viability, T/C [22] 87.2% | viability, T/C (second compound 1 µM, first compound 3.16 µM) 69.8% | viability, T/C (second compound 1 µM, first compound 10 µM) 45.3% | viability, T/C [23] 104% | viability, T/C [24] 102% | viability, T/C [25] 110% | viability, T/C [26] 97.6% | viability, T/C (second compound 3.16 µM, first compound 3.16 µM) 81.7% | viability, T/C (second compound 3.16 µM, first compound 10 µM) 38.8% | viability, T/C [27] 102% | viability, T/C [28] 104% | viability, T/C [29] 103% | viability, T/C [30] 91.6% | viability, T/C (second compound 10 µM, first compound 3.16 µM) 63.9% | viability, T/C (second compound 10 µM, first compound 10 µM) 43.3%
7.39 µM: IC50 [5]
8.15 µM: IC50 [4]
6.82 µM: IC50 [1]

O=C(c1cc(Cc2n[nH]c(=O)c3ccccc23)ccc1F)N1CCN(C(=O)C2CC2)CC1
inactive: viability, T/C (compound 0.0316 µM) 95.8% and 103% and 101% | viability, T/C (compound 0.1 µM) 105% and 101% and 97% | viability, T/C (compound 0.316 µM) 89.8% and 97.6% and 92.6% | viability, T/C (compound 1 µM) 90.3% and 81.9% and 108% | viability, T/C (compound 3.16 µM) 104% and 95.4% and 97.6% | viability, T/C (compound 10 µM) 73.3% and 74% and 74.6%
> 10 µM: IC50 (curve of compound)

C=CCn1c(=O)c2cnc(Nc3ccc(N4CCN(C)CC4)cc3)nc2n1-c1cccc(C(C)(C)O)n1 + Cc1cccc(N(C)C(=O)C2C(O)CCN2c2nc(C)cc(C(F)(F)F)c2C#N)c1
inactive: viability, T/C (second compound 0.0316 µM, first compound 0.00316 µM) 109% | viability, T/C (second compound 0.0316 µM, first compound 0.01 µM) 113% | viability, T/C [7] 104% | viability, T/C [8] 105% | viability, T/C [9] 103% | viability, T/C [10] 60.9% | viability, T/C (second compound 0.1 µM, first compound 0.00316 µM) 112% | viability, T/C (second compound 0.1 µM, first compound 0.01 µM) 109% | viability, T/C [11] 119% | viability, T/C [12] 114% | viability, T/C [13] 115% | viability, T/C [14] 51.5% | viability, T/C (second compound 0.316 µM, first compound 0.00316 µM) 92.3% | viability, T/C (second compound 0.316 µM, first compound 0.01 µM) 88.7% | viability, T/C [15] 105% | viability, T/C [16] 107% | viability, T/C [17] 110% | viability, T/C [18] 59.5% | viability, T/C (second compound 1 µM, first compound 0.00316 µM) 109% | viability, T/C (second compound 1 µM, first compound 0.01 µM) 98.5% | viability, T/C [19] 105% | viability, T/C [20] 99% | viability, T/C [21] 112% | viability, T/C [22] 57.8% | viability, T/C (second compound 3.16 µM, first compound 0.00316 µM) 90.6% | viability, T/C (second compound 3.16 µM, first compound 0.01 µM) 101% | viability, T/C [23] 114% | viability, T/C [24] 102% | viability, T/C [25] 89.7% | viability, T/C [26] 56.9% | viability, T/C (second compound 10 µM, first compound 0.00316 µM) 90.7% | viability, T/C (second compound 10 µM, first compound 0.01 µM) 92.2% | viability, T/C [27] 104% | viability, T/C [28] 90.4% | viability, T/C [29] 97% | viability, T/C [30] 35.4%
> 1 µM: IC50 [1] | IC50 [2] | IC50 [3] | IC50 [4] | IC50 [5]
0.754 µM: IC50 [6]
